Measurements reported in ChEMBL document CHEMBL5252594.
Calls of active or inactive are those of the source.

Legend:
Assay type in all cases: functional, organism-based
Aedes aegypti [1] = assay: Larvicidal activity against Aedes aegypti Rockefeller strain L3 Larvae assessed as mortality at 90 ug/ml measured after 24 hrs; conditions: dose 90.0 µg/ml
Aedes aegypti [2] = assay: Larvicidal activity against Aedes aegypti Rockefeller strain L3 Larvae assessed as mortality at 90 ug/ml measured after 48 hrs; conditions: dose 90.0 µg/ml
Aedes aegypti [3] = assay: Larvicidal activity against Aedes aegypti Rockefeller strain L3 Larvae assessed as mortality at 90 ug/ml measured after 72 hrs; conditions: dose 90.0 µg/ml
Aedes aegypti [4] = assay: Larvicidal activity against Aedes aegypti Rockefeller strain L3 Larvae assessed as mortality at 150 ug/ml measured after 24 hrs; conditions: dose 150.0 µg/ml
Aedes aegypti [5] = assay: Larvicidal activity against Aedes aegypti Rockefeller strain L3 Larvae assessed as mortality at 150 ug/ml measured after 48 hrs; conditions: dose 150.0 µg/ml
Aedes aegypti [6] = assay: Larvicidal activity against Aedes aegypti Rockefeller strain L3 Larvae assessed as mortality at 150 ug/ml measured after 72 hrs; conditions: dose 150.0 µg/ml

Measured: Activity

O=C(/C=C/c1ccc(O)c(O)c1)O[C@@H]1C[C@](O)(C(=O)O)C[C@@H](OC(=O)/C=C/c2ccc(O)c(O)c2)[C@H]1O
inactive: all assays above
